Where two headings read alike, the source gives them in different places.
How the values were obtained:
Test in all cases: 3D clonogenic assay (PDX)
Type in all cases: cell-based, human
[1] = test system: CXF 975; conditions: CXF 975, Colorectal; for IC50: Homo sapiens
How it was run: (§1)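 PDX tumors from NMRI nu/nu mice were enzymatically dissociated into cell suspensions and plated in soft agar. After 24 h, cells received continuous exposure to 10 concentrations (50 µM down to 0.0015 µM, in duplicate) for 8–13 days at 37 °C. Colonies >50 µm were stained with INT tetrazolium and counted by automated imaging; IC50 values came from 4-parameter fits.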

[2] = test system: BXF 1352; conditions: BXF 1352, Bladder; for IC50: Homo sapiens
How it was run: as §1

[3] = test system: GXF 214; conditions: GXF 214, Gastric; for IC50: Homo sapiens
How it was run: as §1

[4] = test system: CXF 676; conditions: CXF 676, Colorectal; for IC50: Homo sapiens
How it was run: as §1

[5] = test system: MEXF 274; conditions: MEXF 274, Melanoma; for IC50: Homo sapiens
How it was run: as §1

[6] = test system: CXF 94; conditions: CXF 94, Colorectal; for IC50: Homo sapiens
How it was run: as §1

[7] = test system: CXF 1783; conditions: CXF 1783, Colorectal; for IC50: Homo sapiens
How it was run: as §1

[8] = test system: CXF 280; conditions: CXF 280, Colorectal; for IC50: Homo sapiens
How it was run: as §1

[9] = test system: MAXF 1162; conditions: MAXF 1162, Breast; for IC50: Homo sapiens
How it was run: as §1

[10] = test system: MEXF 1792; conditions: MEXF 1792, Melanoma; for IC50: Homo sapiens
How it was run: as §1

[11] = test system: PAXF 2053; conditions: PAXF 2053, Pancreas; for IC50: Homo sapiens
How it was run: as §1

[12] = test system: RXF 631; conditions: RXF 631, Renal; for IC50: Homo sapiens
How it was run: as §1

[13] = test system: RXF 486; conditions: RXF 486, Renal; for IC50: Homo sapiens
How it was run: as §1

SMILES: O[C@H](c1cc(-c2ccc(Cl)cc2)nc2ccccc12)[C@@H]1CCCCN1 [S1, (R)-(2-(4-chlorophenyl)quinolin-4-yl)((S)-piperidin-2-yl)methanol]
- b (bottom plateau of concentration-effect curve) [1]: 19
- t (top plateau of concentration-effect curve) [1]: 105
- IC50 ([1]; read-out: abs. IC50): 8.75 µM
- IC50 ([1]; read-out: rel. IC50): 8.62 µM
- b (bottom plateau of concentration-effect curve) [2]: 0
- t (top plateau of concentration-effect curve) [2]: 97
- IC50 ([2]; read-out: abs. IC50): 18.5 µM
- IC50 ([2]; read-out: rel. IC50): 19 µM
- b (bottom plateau of concentration-effect curve) [3]: 6
- t (top plateau of concentration-effect curve) [3]: 99
- IC50 ([3]; read-out: abs. IC50): 4.92 µM
- IC50 ([3]; read-out: rel. IC50): 4.89 µM
- b (bottom plateau of concentration-effect curve) [4]: 19
- t (top plateau of concentration-effect curve) [4]: 105
- IC50 ([4]; read-out: abs. IC50): 8.92 µM
- IC50 ([4]; read-out: rel. IC50): 8.78 µM
- IC50 ([5]; read-out: abs. IC50): 8.84 µM
- IC50 ([5]; read-out: rel. IC50): 8.69 µM
- b (bottom plateau of concentration-effect curve) [5]: 17
- t (top plateau of concentration-effect curve) [5]: 103
- b (bottom plateau of concentration-effect curve) [6]: 8
- t (top plateau of concentration-effect curve) [6]: 98
- IC50 ([6]; read-out: abs. IC50): 13.3 µM
- IC50 ([6]; read-out: rel. IC50): 12.7 µM
- b (bottom plateau of concentration-effect curve) [7]: 42
- t (top plateau of concentration-effect curve) [7]: 100
- IC50 ([7]; read-out: abs. IC50): 9.26 µM
- IC50 ([7]; read-out: rel. IC50): 8.81 µM
- b (bottom plateau of concentration-effect curve) [8]: 5
- t (top plateau of concentration-effect curve) [8]: 101
- IC50 ([8]; read-out: abs. IC50): 8.65 µM
- IC50 ([8]; read-out: rel. IC50): 8.62 µM
- IC50 ([9]; read-out: abs. IC50): 4.64 µM
- IC50 ([9]; read-out: rel. IC50): 4.63 µM
- b (bottom plateau of concentration-effect curve) [9]: 12
- t (top plateau of concentration-effect curve) [9]: 90
- IC50 ([10]; read-out: abs. IC50): 6.19 µM
- IC50 ([10]; read-out: rel. IC50): 6.15 µM
- b (bottom plateau of concentration-effect curve) [10]: 5
- t (top plateau of concentration-effect curve) [10]: 99
- IC50 ([11]; read-out: abs. IC50): 5.87 µM
- IC50 ([11]; read-out: rel. IC50): 5.67 µM
- b (bottom plateau of concentration-effect curve) [11]: 18
- t (top plateau of concentration-effect curve) [11]: 101
- IC50 ([12]; read-out: abs. IC50): 24.6 µM
- IC50 ([12]; read-out: rel. IC50): 28.1 µM
- b (bottom plateau of concentration-effect curve) [12]: 0
- t (top plateau of concentration-effect curve) [12]: 91
- IC50 ([13]; read-out: abs. IC50): 12.8 µM
- IC50 ([13]; read-out: rel. IC50): 12.7 µM
- b (bottom plateau of concentration-effect curve) [13]: 5
- t (top plateau of concentration-effect curve) [13]: 97
